# Assay results as given in patent US12428394B2, “2,4-disubstituted pyrimidine derivative, preparation method therefor and use thereof” (CHENGDU ZENITAR BIOMEDICAL TECHNOLOGY CO., LTD., priority 2019, dated 2025).
# Like-named read-outs stand apart in the source and are kept apart here.
# Tests used:
# FLT3 = target: T1, FLT3 (Homo sapiens, UniProt P36888); assay: In vitro kinase activity experiment, FLT3; assay type: biochemical; settings: inhibition rate of enzyme at 500 nM, measured by Eurofins; for inhibition at 0.5 µM: 40 min, read-out: Kinase activity @ 500 nM (%) FLT3
# T1 construct: purchased Eurofins
# T1 sequence (P36888 27-993): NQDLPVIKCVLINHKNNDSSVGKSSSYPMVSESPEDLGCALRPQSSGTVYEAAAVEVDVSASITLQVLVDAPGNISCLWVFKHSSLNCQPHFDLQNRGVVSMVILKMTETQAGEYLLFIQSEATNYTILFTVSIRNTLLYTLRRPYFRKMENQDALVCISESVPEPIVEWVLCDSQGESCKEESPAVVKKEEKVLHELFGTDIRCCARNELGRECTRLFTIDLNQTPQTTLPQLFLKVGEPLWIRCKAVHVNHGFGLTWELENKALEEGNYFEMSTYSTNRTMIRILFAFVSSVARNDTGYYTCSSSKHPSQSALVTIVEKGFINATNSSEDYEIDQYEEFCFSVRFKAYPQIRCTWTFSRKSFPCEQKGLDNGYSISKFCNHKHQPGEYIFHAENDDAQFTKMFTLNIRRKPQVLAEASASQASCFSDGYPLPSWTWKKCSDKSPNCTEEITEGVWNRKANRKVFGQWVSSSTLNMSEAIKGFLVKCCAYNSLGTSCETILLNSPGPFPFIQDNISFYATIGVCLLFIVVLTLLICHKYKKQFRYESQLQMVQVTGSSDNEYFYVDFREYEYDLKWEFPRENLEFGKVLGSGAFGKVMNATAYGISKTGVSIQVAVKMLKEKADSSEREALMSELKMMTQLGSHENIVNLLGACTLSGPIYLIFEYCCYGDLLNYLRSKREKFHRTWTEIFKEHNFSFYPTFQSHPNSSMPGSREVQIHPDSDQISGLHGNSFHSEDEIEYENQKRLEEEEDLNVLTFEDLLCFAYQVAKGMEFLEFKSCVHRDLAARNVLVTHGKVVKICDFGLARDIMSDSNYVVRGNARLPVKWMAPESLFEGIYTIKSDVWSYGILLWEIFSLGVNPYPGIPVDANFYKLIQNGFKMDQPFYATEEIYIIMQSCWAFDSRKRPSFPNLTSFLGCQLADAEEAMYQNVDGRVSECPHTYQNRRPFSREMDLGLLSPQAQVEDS
# In short: (§1)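 Radiometric filter-binding assay: kinase, its substrate and compound in 8 mM MOPS pH 7.0, 0.2 mM EDTA, 10 mM MnCl2, with 10 mM magnesium acetate and γ33P-ATP; MgATP started the reaction, 40 min at room temperature. Stopped with 3% phosphate, spotted on Filtermat A, washed, scintillation counted.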
# [1] = tested on: MOLM-13 cells (FLT3-ITD-/+); assay: Inhibition of cell proliferation by MTT experiment, MOLM-13; assay type: cell-based, human; settings: MTT, 72 h, read-out: IC50 value on cell proliferation inhibition, MOLM-13 FLT3-ITD-/+
# In short: (§2)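 MTT assay in MV4-11, MOLM-13 (FLT3-ITD) and SET-2 (JAK2 V617F) cells at 10,000–15,000 cells/well in IMDM with 10% FBS. Cells are exposed to compound for 72 h at 37 °C, then to MTT for 1–3 h. IC50 is fitted from inhibition rates across concentrations.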
# [2] = tested on: MV4-11 cells (FLT3-ITD+/+); assay: Inhibition of cell proliferation by MTT experiment, MV4-11; assay type: cell-based, human; settings: MTT, 72 h, read-out: IC50 value on cell proliferation inhibition, MV4-11 FLT3-ITD+/+
# In short: as §2
# JAK2 = target: T2, JAK2 (Homo sapiens, UniProt O60674); assay: In vitro kinase activity experiment, JAK2; assay type: biochemical; settings: inhibition rate of enzyme at 500 nM; measured by Eurofins
# T2 construct: purchased Eurofins
# T2 sequence (O60674 whole entry): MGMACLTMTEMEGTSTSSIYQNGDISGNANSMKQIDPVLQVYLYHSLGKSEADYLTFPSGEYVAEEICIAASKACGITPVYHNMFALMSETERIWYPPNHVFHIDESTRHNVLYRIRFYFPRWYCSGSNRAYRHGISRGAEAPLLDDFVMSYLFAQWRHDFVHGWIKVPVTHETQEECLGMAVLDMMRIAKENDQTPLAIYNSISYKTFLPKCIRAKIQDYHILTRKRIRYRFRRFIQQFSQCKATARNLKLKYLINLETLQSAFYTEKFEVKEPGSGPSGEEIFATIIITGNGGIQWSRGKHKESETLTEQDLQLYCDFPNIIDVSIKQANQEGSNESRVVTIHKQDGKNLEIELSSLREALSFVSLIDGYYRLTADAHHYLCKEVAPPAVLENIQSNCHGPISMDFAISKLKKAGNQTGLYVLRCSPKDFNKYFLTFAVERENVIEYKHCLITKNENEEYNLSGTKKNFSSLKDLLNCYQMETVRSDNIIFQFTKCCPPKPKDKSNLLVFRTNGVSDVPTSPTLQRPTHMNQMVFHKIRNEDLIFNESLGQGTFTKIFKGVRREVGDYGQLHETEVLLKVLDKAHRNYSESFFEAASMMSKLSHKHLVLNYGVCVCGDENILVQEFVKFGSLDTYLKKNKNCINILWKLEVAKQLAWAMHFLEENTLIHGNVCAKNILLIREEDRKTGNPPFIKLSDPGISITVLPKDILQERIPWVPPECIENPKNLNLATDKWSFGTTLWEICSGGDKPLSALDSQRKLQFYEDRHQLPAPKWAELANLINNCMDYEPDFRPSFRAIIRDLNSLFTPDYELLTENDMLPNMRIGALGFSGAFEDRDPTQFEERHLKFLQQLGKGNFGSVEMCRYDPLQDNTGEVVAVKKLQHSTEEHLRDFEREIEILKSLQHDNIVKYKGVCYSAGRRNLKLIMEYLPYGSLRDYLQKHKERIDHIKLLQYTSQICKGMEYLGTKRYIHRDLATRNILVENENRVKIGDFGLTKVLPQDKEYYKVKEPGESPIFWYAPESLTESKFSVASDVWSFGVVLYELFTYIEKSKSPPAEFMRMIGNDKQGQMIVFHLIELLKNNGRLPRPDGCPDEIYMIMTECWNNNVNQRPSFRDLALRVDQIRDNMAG
# In short: as §1
# SET-2 cells (JAK2 V617F) = assay: Inhibition of cell proliferation by MTT experiment, SET-2; assay type: cell-based; settings: MTT, 72 h, read-out: IC50 value on cell proliferation inhibition, SET-2 (V617F)
# In short: as §2
Structure (SMILES),inhibition at 0.5 µM (FLT3) [%],"IC50 ([1]; Homo sapiens, MOLM-13) [µM]","IC50 ([2]; Homo sapiens, MV4-11) [µM]",Kinase activity @ 500 nM (%) JAK2 (JAK2) [%],"IC50 (SET-2 cells (JAK2 V617F); Homo sapiens, SET-2) [µM]",Kinase activity @ 500 nM (%) FLT3 (FLT3) [%],IC50 [1] [µM],IC50 [2] [µM],IC50 (SET-2 cells (JAK2 V617F)) [µM]
"CCCCN(C)C1CCN(c2ccc(Nc3ncc(C)c(-c4cnn(C(C)C)c4)n3)cc2F)CC1 [CLJ-50, 5-methyl-N-(3-fluoro-4-(4-N-butyl-4-N-methylaminopiperidine-1-yl)phenyl)-4-(1-isopropyl-1H-pyrazole-4-yl) pyrimidine-2-amine]",90,> 1,0.1 to 1,89,> 1,,,,
"CCCCCCN(C)C1CCN(c2ccc(Nc3ncc(C)c(-c4cnn(C(C)C)c4)n3)cc2F)CC1 [CLJ-51, 5-methyl-N-(3-fluoro-4-(4-N-hexyl-4-N-methylaminopiperidine-1-yl)phenyl)-4-(1-isopropyl-1H-pyrazole-4-yl) pyrimidine-2-amine]",93,0.001 to 0.01,0.1 to 1,95,0.1 to 1,,,,
"Cc1cnc(Nc2ccc(N3CCC(N(C)CC4CCCO4)CC3)c(F)c2)nc1-c1cnn(C(C)C)c1 (centres unmarked) [CLJ-53, N-(3-fluoro-4-(4-(methyl((tetrahydrofuran-2-yl)methyl)amino)piperidine-1-yl)phenyl)-4-(1-isopropyl-1H-pyrazole-4-yl)-5-methylpyrimidine-2-amine]",98,0.01 to 0.1,0.001 to 0.01,100,0.1 to 1,,,,
"Cc1cnc(Nc2ccc(N3CCC(N(C)CCN4CCOCC4)CC3)c(F)c2)nc1-c1cnn(C(C)C)c1 [CLJ-54, N-(3-fluoro-4-(4-(methyl (2-morpholinoethyl)amino)piperidine-1-yl)phenyl)-4-(1-isopropyl-1H-pyrazole-4-yl)-5-methylpyrimidine-2-amine]",23,> 1,> 1,17,> 1,,,,
"Cc1cnc(Nc2ccc(N3CCC(N(C)CCN4CCCCC4)CC3)c(F)c2)nc1-c1cnn(C(C)C)c1 [CLJ-55, N-(3-fluoro-4-(4-(methyl (1-piperidylethyl)amino)piperidine-1-yl)phenyl)-4-(1-isopropyl-1H-pyrazole-4-yl)-5-methylpyrimidine-2-amine]",20,> 1,> 1,25,> 1,,,,
"Cc1cnc(Nc2ccc(N3CCC(N(C)CCN4CCN(C)CC4)CC3)c(F)c2)nc1-c1cnn(C(C)C)c1 [CLJ-56, N-(3-fluoro-4-(4-(methyl (4-methyl-1-piperazine ethyl)amino)piperidine-1-yl)phenyl)-4-(1-isopropyl-1H-pyrazole-4-yl)-5-methylpyrimidine-2-amine]",96,0.01 to 0.1,0.01 to 0.1,99,0.1 to 1,,,,
"CCCN1CCN(CCN(C)C2CCN(c3ccc(Nc4ncc(C)c(-c5cnn(C(C)C)c5)n4)cc3F)CC2)CC1 [CLJ-57, N-(3-fluoro-4-(4-(methyl (4-propyl-1-piperazine ethyl)amino)piperidine-1-yl)phenyl)-4-(1-isopropyl-1H-pyrazole-4-yl)-5-methylpyrimidine-2-amine]",96,0.01 to 0.1,0.001 to 0.01,97,0.1 to 1,,,,
"Cc1cnc(Nc2ccc(N3CCC(N(C)CCN4CCN(C(C)C)CC4)CC3)c(F)c2)nc1-c1cnn(C(C)C)c1 [CLJ-58, N-(3-fluoro-4-(4-(methyl (4-isopropyl-1-piperazine ethyl)amino)piperidine-1-yl)phenyl)-4-(1-isopropyl-1H-pyrazole-4-yl)-5-methylpyrimidine-2-amine]",96,0.01 to 0.1,0.001 to 0.01,95,0.1 to 1,,,,
"CCN(CCN1CCOCC1)C1CCN(c2ccc(Nc3ncc(C)c(-c4cnn(C(C)C)c4)n3)cc2F)CC1 [CLJ-59, N-(3-fluoro-4-(4-(ethyl(morpholinoethyl)amino)piperidine-1-yl)phenyl)-4-(1-isopropyl-1H-pyrazole-4-yl)-5-methylpyrimidine-2-amine]",97,0.1 to 1,0.001 to 0.01,98,0.1 to 1,,,,
"CCCN(CCN1CCOCC1)C1CCN(c2ccc(Nc3ncc(C)c(-c4cnn(C(C)C)c4)n3)cc2F)CC1 [CLJ-60, N-(3-fluoro-4-(4-(propyl(morpholinoethyl)amino)piperidine-1-yl)phenyl)-4-(1-isopropyl-1H-pyrazole-4-yl)-5-methylpyrimidine-2-amine]",97,0.01 to 0.1,0.001 to 0.01,100,0.1 to 1,,,,
"Cc1cnc(Nc2ccc(N3CCC(CN(C)CCN4CCOCC4)CC3)c(F)c2)nc1-c1cnn(C(C)C)c1 [CLJ-61, N-(3-fluoro-4-(4-(methyl(morpholinoethyl)aminomethyl)piperidine-1-yl)phenyl)-4-(1-isopropyl-1H-pyrazole-4-yl)-5-methylpyrimidine-2-amine]",98,0.01 to 0.1,0.001 to 0.01,99,0.1 to 1,,,,
"Cc1cnc(Nc2ccc(N3CCC[C@@H](N(C)C(=O)CCC#N)C3)c(F)c2)nc1-c1cnn(C(C)C)c1 [CLJ-65, (R)-3-cyano-N-(1-(2-fluoro-4-((4-(1-isopropyl-1H-pyrazole-4-yl)-5-methylpyrimidine-2-yl)amino)phenyl)piperidine-3-yl)-N-methylpropionamide]",89,0.01 to 0.1,0.01 to 0.1,90,0.1 to 1,,,,
"Cc1cnc(Nc2ccc(N3CCC4(CC3)CNC4)c(F)c2)nc1-c1cnn(C(C)C)c1 [CLJ-66, N-(3-fluoro-4-(2,7-diazaspiro[3.5]nonane-7-yl)phenyl)-4-(1-isopropyl-1H-pyrazole-4-yl)-5-methylpyrimidine-2-amine]",94,0.1 to 1,0.01 to 0.1,93,0.1 to 1,,,,
"Cc1cnc(Nc2ccc(N3CCC4(CC3)CN(CCO)C4)c(F)c2)nc1-c1cnn(C(C)C)c1 [CLJ-67, N-(3-fluoro-4-(2,7-diazaspiro[3.5]nonane-2-hydroxyethyl-7-yl)phenyl)-4-(1-isopropyl-1H-pyrazole-4-yl)-5-methylpyrimidine-2-amine]",,,,96,,98,0.1 to 1,0.01 to 0.1,0.1 to 1
"CCCC(O)CN1CC2(CCN(c3ccc(Nc4ncc(C)c(-c5cnn(C(C)C)c5)n4)cc3F)CC2)C1 (centres unmarked) [CLJ-70, N-(3-fluoro-4-(2,7-diazaspiro [3.5]nonane-2-hydroxypentyl-7-yl)phenyl)-4-(1-isopropyl-1H-pyrazol-4-yl)-5-methylpyrimidine-2-amine]",,,,90,,91,0.01 to 0.1,0.01 to 0.1,0.1 to 1
"CCN1CC2(CCN(c3ccc(Nc4ncc(C)c(-c5cnn(C(C)C)c5)n4)cc3F)CC2)C1 [CLJ-71, N-(3-fluoro-4-(2,7-diazaspiro [3.5]nonane-2-ethyl-7-yl)phenyl)-4-(1-isopropyl-1H-pyrazole-4-yl)-5-methylpyrimidine-2-amine]",93,0.01 to 0.1,0.001 to 0.01,91,0.1 to 1,,,,
